Source: patent US6706740B2, “Fungicidal heterocyclic aromatic amides and their compositions, methods of use and preparation” (Dow AgroSciences LLC, priority 1999, dated 2004)
Where two headings read alike, the source gives them in different places.

How the values were obtained:
[1] = tested on: Magnaporthe grisea (Pyricularia oryzae—PYRIOR); test: microbe, parasite or virus in culture; assay type: cell-based; details: Pyricularia oryzae, read-out: PYRIOR in vitro Growth Inhibition
[2] = tested on: Rhizoctonia solani (RHIZSO); test: microbe, parasite or virus in culture; assay type: cell-based; details: Rhizoctonia solani, read-out: RHIZSO in vitro Growth Inhibition
[3] = tested on: Mycosphaerella graminicola (Septoria tritici—SEPTTR); test: In vitro fungal growth inhibition, Mycosphaerella graminicola (SEPTTR); assay type: cell-based; details: Zymoseptoria tritici, read-out: SEPTTR in vitro Growth Inhibition
[4] = tested on: Stagonospora nodorum (Leptosphaeria nodorum—LEPTNO); test: In vitro fungal growth inhibition, Stagonospora nodorum (LEPTNO); assay type: cell-based; details: Leptosphaeria, read-out: LEPTNO in vitro Growth Inhibition
Ustilago maydis (USTIMA) = test: microbe, parasite or virus in culture; assay type: cell-based; details: Mycosarcoma maydis, read-out: USTIMA in vitro Growth Inhibition
[5] = tested on: Phytophthora infestans (PHYTIN); test: microbe, parasite or virus in culture; assay type: cell-based; details: Phytophthora infestans, read-out: PHYTIN in vitro Growth Inhibition
[6] = tested on: Phytophthora infestans—PHYTIN; test: whole plant or invertebrate; assay type: in vivo; details: Phytophthora, in Solanum lycopersicum, 24 h, read-out: PHYTIN in vivo 1 Day Protectant
[7] = tested on: Puccinia recondita—PUCCRT; test: Brown Rust of Wheat, in vivo whole plant, 24 Hour Protectant; details: for pest or weed control at 100 ppm: Puccinia, read-out: PUCCRT in vivo 1 Day Protectant
Erysiphe graminis—ERYSGT = test: Powdery Mildew of Wheat, in vivo whole plant, 24 Hour Protectant; details: Erysiphe, read-out: ERYSGT in vivo 1 Day Protectant
Septoria tritici—SEPTTR = test: Leaf Blotch of Wheat, in vivo whole plant, 24 Hour Protectant; details: for pest or weed control at 100 ppm: Zymoseptoria tritici, 24 h, control of fungal infection vs untreated plants, read-out: SEPTTR in vivo 1 Day Protectant
[8] = tested on: Leptosphaeria nodorum—LEPTNO; test: Glume Blotch of Wheat, in vivo whole plant, 24 Hour Protectant; details: for pest or weed control at 100 ppm: Leptosphaeria, read-out: LEPTNO in vivo 1 Day Protectant
[9] = 100 ppm spray, wheat, 24 hour protectant, control of fungal infection vs untreated plants
[10] = 100 ppm spray, wheat, 24 hour protectant
[11] = 100 ppm spray, 24 hour protectant, wheat, control of fungal infection vs untreated plants
[12] = 100 ppm spray, 24 hour protectant, wheat
[13] = 100 ppm spray, wheat, 24 hour protectant, % control of fungal infection vs untreated plants
[14] = wheat plants sprayed at 100 ppm, inoculated after 24 hours, control of fungal infection vs untreated plants
[15] = wheat plants sprayed at 100 ppm, inoculated after 24 hours

Row | SMILES | inhibition at 25 ppm [1] [%] | inhibition at 25 ppm [2] [%] | inhibition at 25 ppm ([3]; 25 ppm in growth medium) [%] | inhibition at 25 ppm ([4]; 25 ppm in growth medium) [%] | inhibition at 25 ppm (Ustilago maydis (USTIMA)) [%] | inhibition at 25 ppm [5] [%] | pest or weed control at 100 ppm [6] [%] | pest or weed control at 100 ppm [7, 9] [%] | pest or weed control at 100 ppm (Erysiphe graminis—ERYSGT; [9]) [%] | pest or weed control at 100 ppm (Septoria tritici—SEPTTR; [10]) [%] | pest or weed control at 100 ppm [8, 9] [%] | pest or weed control at 100 ppm [7, 11] [%] | pest or weed control at 100 ppm (Erysiphe graminis—ERYSGT; [11]) [%] | pest or weed control at 100 ppm (Septoria tritici—SEPTTR; [12]) [%] | pest or weed control at 100 ppm [8, 11] [%] | also measured
1 | COc1ccnc(C(=O)N[C@@H](CO)C(=O)O[C@@H](C)[C@H](OC(=O)C(C)C)[C@@H](Cc2ccccc2)C(=O)O)c1O [Compound 341] | < 80 | < 80 | < 80 | < 80 | < 80 | < 80 | < 25 | < 25 | < 25 | 25 to 74 | < 25 | – | – | – | – | –
2 | COc1ccnc(C(=O)Nc2ccc(/C(=N/O)c3cccc(C(F)(F)F)c3)cc2)c1O [Compound 407] | < 80 | < 80 | > 80 | < 80 | < 80 | < 80 | < 25 | < 25 | < 25 | 25 to 74 | 25 to 74 | – | – | – | – | –
3 | COc1ccnc(C(=O)NC(COC(=O)C(Cc2ccccc2)C(C)OC(=O)c2ccccc2)C(=O)OC(C)C)c1O (stereo not drawn) [Compound 356] | < 80 | < 80 | < 80 | < 80 | < 80 | < 80 | < 25 | 25 to 74 | < 25 | 25 to 74 | 25 to 74 | – | – | – | – | –
4 | COc1ccnc(C(=O)NC2CC(C)(C)C=CC(C)C2C)c1O (stereo not drawn) [Compound 279] | < 80 | < 80 | > 80 | > 80 | < 80 | > 80 | 25 to 74 | – | – | – | – | < 25 | 25 to 74 | 25 to 74 | 25 to 74 | –
5 | COc1ccnc(C(=O)N[C@H]2COC(=O)[C@H](Cc3ccccc3)[C@@H](OC(=O)C(C)C)[C@H](C)OC2=O)c1OC(=O)C1CCCC1 [Compound 611] | < 80 | < 80 | < 80 | < 80 | < 80 | < 80 | < 25 | – | – | – | – | – | – | – | – | PUCCRT in vivo 1 Day Protectant [7, 13]: + +; pest or weed control at 100 ppm (Erysiphe graminis—ERYSGT; [13]): < 25%; SEPTTR in vivo 1 Day Protectant (Septoria tritici—SEPTTR; [13]): + +; LEPTNO in vivo 1 Day Protectant [8, 13]: + +
6 | COC(=O)C(COC(=O)C(C)c1ccccc1)NC(=O)c1nccc(OC)c1O (stereo not drawn) [Compound 343] | < 80 | < 80 | < 80 | < 80 | < 80 | < 80 | < 25 | < 25 | 25 to 74 | < 25 | 25 to 74 | – | – | – | – | –
7 | CC(NC(=O)c1ccncc1O)c1ccc(OC(F)(F)F)cc1 (stereo not drawn) [Compound 511] | < 80 | < 80 | – | – | < 80 | < 80 | < 25 | – | – | – | – | – | – | – | – | inhibition at 25 ppm ([3]; 25 ppm in the growth medium): < 80%; inhibition at 25 ppm ([4]; 25 ppm in the growth medium): < 80%; pest or weed control at 100 ppm [7, 14]: < 25%; pest or weed control at 100 ppm (Erysiphe graminis—ERYSGT; [14]): < 25%; pest or weed control at 100 ppm (Septoria tritici—SEPTTR; [15]): < 25%; pest or weed control at 100 ppm [8, 14]: < 25%
8 | COc1ccnc(C(=O)NC2CC(C)(C)C3OC3[C@H](C)[C@H]2C)c1O (stereo partly drawn) [Compound 280] | < 80 | < 80 | < 80 | < 80 | < 80 | < 80 | 25 to 74 | – | – | – | – | 25 to 74 | < 25 | 25 to 74 | 25 to 74 | –
9 | COc1ccnc(C(=O)NC2CC(C)(C)/C=C\CC(C)(C)C2)c1OC(C)=O (stereo not drawn) [Compound 580] | < 80 | < 80 | – | – | < 80 | < 80 | < 25 | – | – | – | – | – | – | – | – | inhibition at 25 ppm ([3]; 25 ppm in the growth medium): < 80%; inhibition at 25 ppm ([4]; 25 ppm in the growth medium): < 80%; pest or weed control at 100 ppm [7, 14]: 25 to 74%; pest or weed control at 100 ppm (Erysiphe graminis—ERYSGT; [14]): < 25%; pest or weed control at 100 ppm (Septoria tritici—SEPTTR; [15]): 25 to 74%; LEPTNO in vivo 1 Day Protectant [8, 14]: + +
10 | COc1ccnc(C(=O)N[C@@H]2CC3CC2C2C(=O)N(CC(C)C)C(=O)C32)c1O (stereo partly drawn) [Compound 303] | < 80 | < 80 | < 80 | < 80 | < 80 | < 80 | 25 to 74 | – | – | – | – | < 25 | < 25 | 25 to 74 | 25 to 74 | –
11 | COc1ccc(O)c(C(=O)NC2COC(=O)[C@H](Cc3ccccc3)[C@@H](OC(=O)C(C)C)[C@H](C)OC2=O)n1 (stereo partly drawn) [Compound 481] | < 80 | < 80 | – | – | < 80 | < 80 | < 25 | – | – | – | – | – | – | – | – | inhibition at 25 ppm ([3]; 25 ppm in the growth medium): < 80%; inhibition at 25 ppm ([4]; 25 ppm in the growth medium): < 80%; pest or weed control at 100 ppm [7, 14]: < 25%; pest or weed control at 100 ppm (Erysiphe graminis—ERYSGT; [14]): < 25%; pest or weed control at 100 ppm (Septoria tritici—SEPTTR; [15]): 25 to 74%; pest or weed control at 100 ppm [8, 14]: 25 to 74%
12 | O=C(Nc1nccs1)c1ncccc1O [Compound 235] | > 80 | > 80 | > 80 | > 80 | > 80 | > 80 | < 25 | – | – | – | – | < 25 | < 25 | < 25 | < 25 | –
13 | COc1ccnc(C(=O)NC2CC(C)(C)C(OC)C(C)(C)C2)c1O (stereo not drawn) [Compound 265] | < 80 | < 80 | < 80 | < 80 | < 80 | < 80 | < 25 | – | – | – | – | < 25 | 25 to 74 | 25 to 74 | 25 to 74 | –
14 | COc1ccnc(C(=O)Nc2cccc(Oc3ccccc3Cl)c2)c1O [Compound 439] | < 80 | < 80 | < 80 | < 80 | < 80 | < 80 | < 25 | 25 to 74 | < 25 | < 25 | 25 to 74 | – | – | – | – | –
15 | COC(=O)C(COC(=O)C(COC(=O)C(C)C)Cc1ccccc1)NC(=O)c1nccc(OC)c1O (stereo not drawn) [Compound 349] | < 80 | < 80 | < 80 | < 80 | < 80 | < 80 | < 25 | – | < 25 | < 25 | < 25 | – | – | – | – | PUCCRT in vivo 1 Day Protectant [7, 9]: + +
